Assay results published in patent US20240051936A1, “ISOINDOLINONE COMPOUNDS” (Monte Rosa Therapeutics, Inc., priority 2021, published 2024).
Read-outs that look alike come from different tables or passages of the source.

Columns and labels:
[1] = target: Full length wild-type cereblon CRBN (Homo sapiens (Human), UniProt Q96SW2); assay: Fluorescence polarization (FP) assay, cereblon binding
Experimental: Compound activity was monitored in a fluorescence polarization (FP) homogeneous assay using 1-[5-({2-[2-(2-{[2-(2,6-dioxopiperidin-3-yl)-1,3-dioxo-2,3-dihydro-1H-isoindol-4-yl]oxy}acetamido)ethoxy]ethyl}carbamoyl)pentyl]-3,3-dimethyl-2-[(1E,3E)-5-[(2E)-1,3,3-trimethyl-5-sulfo-2,3-dihydro-1H-indol-2-ylidene]penta-1,3-dien-1-yl]-3H-indol-1-ium-5-sulfonate as a fluorescent probe. Unless otherwise stated, all reagents were purchased from Sigma Aldrich. Enzymatic reactions were conducted in Perkin-Elmer Black 384 well ProxiPlate Plus (catalogue no. 6008269) in 10 sL total volume. Full length wild-type cereblon CRBN (80.0 nM, 10 sL) was incubated in assay buffer containing 20 mM HEPES (pH 8.0), […], 0.5 mM TCEP and 0.05% Tween 20 in the presence or absence of compound (300 nL). Inhibitors were stored as 10 mM DMSO stocks in an inert environment (low humidity, dark, low oxygen, room temperature) using the Storage Pod System.
Compounds and DMSO were dispensed using the Echo E5XX (Labcyte Inc. USA) to give concentrations from 300 to 0.937 or 3000 to 9.3 nM in a 12 data point curve. […] Following incubation at room temperature for 30 min, the assay was initiated by dispensing the probe to a final concentration of 5 nM (2.5 nL of a 20 μM stock) using the Echo E5XX. FP was measured after a period of 12 hours using a Pherastar plate reader (BMG Labtech, Germany) exciting at 590 nm and measuring the amount of parallel and perpendicular light at 675 nm. The FP signal was subsequently normalized to the no-compound control (i.e., DMSO). Analysis and IC50 values were derived using Dotmatics (Dotmatics UK) software.

GSPT1 = GSPT1 (Homo sapiens (Human), UniProt P15170+Q96SW2); assay: Immunofluorescence assay for GSPT1 degradation in CAL-Si cells; assay type: cell-based; conditions: CAL-Si cells
Experimental: The compounds were tested in an immunofluorescence assay for their activity to bind to degrade GSPT1. CAL-Si cells were purchased from DSMZ (cat. Number ACC302), sub-cultured in 90% Dulbecco's MEM (4.5 g/L glucose, Gibco 11965)+10% heat inactivated FBS (BioConcept, 2-01F136I) and incubated at 37° C., 5% CO2. For the assay, imaging microtiterplate Cell Carrier 96 Ultra (Perkin Elmer 6055302) were pre-coated with Fibronectin (Sigma F085, 30 μl at 0.2 μg/ml) in PBS (100 μl, Gibco 14190) for 45 min at room temperature, rinsed with PBS and CAL-Si cells (30K cells/well) were plated and let to adhere overnight. Cells were treated with compounds typically using a serial dilution ranging from 30 μM to 0.1 nM for 6 hours. Compounds were stored at 10 mM DMSO stocks. Vehicle (DMSO), positive (CC-885, 10 μM) and rescue controls (positive control plus 0.2 μM bortezomib) were also included at this stage. Cells were subsequently rinsed with PBS and fixed in 10% Formalin solution (50 μl, Sigma HT5011)) for 20 mins at room temperature. Following three consecutive PBS washes (100 μl), cells were permeabilized in 0.1% Triton X-100 in PBS (Sigma 93443, 50 μl) for 15 mins at room temperature. Following three further PBS washes, 50 μl blocking buffer (1% BSA, Sigma A4503, in PBS) was added for 45 min for signal-to-noise reduction.
Primary antibody (human GSPT1, Sigma HPA052488) was diluted in blocking buffer (dil.1/300, 35 μl/well) and incubated with the cells overnight at 4° C. After three PBS washes, Alexa-fluor 488 coupled secondary antibodies (Invitrogen, A32731, dil.1/1000), Alexa-fluor 647-Phalloïdin (Invitrogen, A22287, dil.1/200) and DAPI (Thermo, #62248, dil.1/1000) were diluted in blocking buffer and incubated with the samples for 2 hours at room temperature. After three final PBS washes, samples were conserved in 100 μl PBS in the dark, until measurement. Image acquisition was performed on the Operetta High-Content Imager (Perkin-Elmer). Fluorescence intensity of Alexa-Fluor 488 (GSPT1), Alexa-Fluor 647 (Actin) and DAPI (Nucleus) were measured. For the determination of GSPT1 DC50 values, a custom algorithm implemented in the PerkinElmer image analysis software Harmony-Acapella® was developed. After user-defined setting of adjustment parameters, the analysis was run identically without human intervention for all image fields. DAPI staining of the nuclei was used to determine the location of cells using standard nuclei detection modules. Segmentation artifacts were removed by threshold-based filters for area, roundness and intensity. The outline of the cells was determined analogously from the sum of the normalized, smoothed DAPI and Actin channel, starting from each nucleus. The Alexa-Fluor 488 (GSPT1) signal intensity in each cell was finally measured, in order to obtain a Mean intensity per cell. GSPT1 degradation (DC50) was calculated after normalization to controls and data import in CDD vault Database, using non-linear regression.

[2] = wild-type CRBN 80.0 nM, probe 5 nM, FP measured after 12 hours, read-out: rFP IC50
[3] = compounds with code A, read-out: DC50 value code
[4] = treated 6 hours, read-out: Code, activity for GSPT1 degradation (DC50)
[5] = cereblon binding, bound, read-out: IC50 value

Full length wild-type cereblon CRBN, sequence (Q96SW2 whole entry): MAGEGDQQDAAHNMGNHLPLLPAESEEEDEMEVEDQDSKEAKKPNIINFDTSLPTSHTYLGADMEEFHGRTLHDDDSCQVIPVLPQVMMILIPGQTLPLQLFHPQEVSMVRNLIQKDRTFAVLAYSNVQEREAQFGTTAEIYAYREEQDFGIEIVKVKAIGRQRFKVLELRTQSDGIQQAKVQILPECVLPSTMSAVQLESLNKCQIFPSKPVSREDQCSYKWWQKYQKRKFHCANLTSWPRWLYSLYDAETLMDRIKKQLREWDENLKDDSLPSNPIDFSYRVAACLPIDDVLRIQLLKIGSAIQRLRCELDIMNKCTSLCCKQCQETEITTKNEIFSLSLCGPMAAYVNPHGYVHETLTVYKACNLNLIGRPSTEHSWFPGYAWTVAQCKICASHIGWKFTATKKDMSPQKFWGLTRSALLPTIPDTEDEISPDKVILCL
GSPT1, sequence (P15170 whole entry): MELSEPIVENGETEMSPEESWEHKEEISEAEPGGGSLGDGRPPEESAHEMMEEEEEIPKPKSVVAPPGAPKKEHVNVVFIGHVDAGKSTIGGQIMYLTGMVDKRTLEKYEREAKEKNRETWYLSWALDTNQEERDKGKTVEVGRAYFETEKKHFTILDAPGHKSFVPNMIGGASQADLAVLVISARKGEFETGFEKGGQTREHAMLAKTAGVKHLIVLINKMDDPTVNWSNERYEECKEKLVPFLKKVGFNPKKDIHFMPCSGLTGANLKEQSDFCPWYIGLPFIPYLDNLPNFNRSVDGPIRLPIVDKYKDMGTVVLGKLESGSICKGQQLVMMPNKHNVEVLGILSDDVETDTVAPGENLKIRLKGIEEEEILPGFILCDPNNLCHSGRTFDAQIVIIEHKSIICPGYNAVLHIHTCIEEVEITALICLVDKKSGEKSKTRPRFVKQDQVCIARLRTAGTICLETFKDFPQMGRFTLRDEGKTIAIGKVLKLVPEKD
GSPT1, sequence (Q96SW2 whole entry): as the sequence (Q96SW2 whole entry) above
GSPT1, sequence (Q16531 whole entry partner): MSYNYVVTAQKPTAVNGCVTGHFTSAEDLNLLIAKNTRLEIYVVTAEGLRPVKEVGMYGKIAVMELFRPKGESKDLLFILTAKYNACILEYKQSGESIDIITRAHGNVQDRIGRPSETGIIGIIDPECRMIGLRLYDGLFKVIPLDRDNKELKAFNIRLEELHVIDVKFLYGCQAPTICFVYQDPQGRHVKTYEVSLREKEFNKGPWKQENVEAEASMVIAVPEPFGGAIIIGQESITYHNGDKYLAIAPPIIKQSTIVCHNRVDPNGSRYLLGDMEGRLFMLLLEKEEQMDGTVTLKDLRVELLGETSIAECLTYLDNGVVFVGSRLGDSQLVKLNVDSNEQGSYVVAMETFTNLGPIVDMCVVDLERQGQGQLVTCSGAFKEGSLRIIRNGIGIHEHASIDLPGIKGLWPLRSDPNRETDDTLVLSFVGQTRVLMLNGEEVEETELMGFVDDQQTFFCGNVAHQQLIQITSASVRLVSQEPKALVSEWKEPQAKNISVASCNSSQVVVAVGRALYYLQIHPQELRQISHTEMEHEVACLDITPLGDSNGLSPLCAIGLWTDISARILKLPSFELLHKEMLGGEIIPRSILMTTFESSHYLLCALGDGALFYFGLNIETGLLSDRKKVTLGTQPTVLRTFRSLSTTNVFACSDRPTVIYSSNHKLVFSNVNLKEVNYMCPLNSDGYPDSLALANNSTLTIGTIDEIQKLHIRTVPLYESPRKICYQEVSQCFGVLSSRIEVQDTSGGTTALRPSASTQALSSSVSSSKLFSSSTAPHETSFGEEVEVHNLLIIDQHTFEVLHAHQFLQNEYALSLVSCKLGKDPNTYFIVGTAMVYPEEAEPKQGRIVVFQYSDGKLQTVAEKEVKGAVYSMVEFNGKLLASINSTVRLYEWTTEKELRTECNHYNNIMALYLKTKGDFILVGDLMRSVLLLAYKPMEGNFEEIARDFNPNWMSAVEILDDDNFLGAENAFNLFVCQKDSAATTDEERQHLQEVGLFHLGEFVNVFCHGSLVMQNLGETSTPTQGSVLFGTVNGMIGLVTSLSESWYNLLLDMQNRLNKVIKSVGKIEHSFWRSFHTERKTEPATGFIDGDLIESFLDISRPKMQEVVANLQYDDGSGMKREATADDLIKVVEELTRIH

| IC50 [1, 2] [nM] | DC50 (GSPT1; [3]) [nM] | DC50 (GSPT1; [4]) [nM] | IC50 [1, 5] [nM] | Structure (SMILES) |
| --- | --- | --- | --- | --- |
| > 1900 | < 30 | < 30 | – | CC(C)(C)c1cccc(NC(=O)OCc2cc(F)c3c(c2)C(=O)N(C2CCC(=O)NC2=O)C3)c1 (centres unmarked) [Compound 25, (2-(2,6-dioxopiperidin-3-yl)-7-fluoro-3-oxoisoindolin-5-yl)methyl (3-(tert-butyl)phenyl)carbamate] |
| 600 to 1200 | – | 30 to 300 | < 600 | COc1cc(COC(=O)Nc2ccc(F)c(OC(F)F)c2)cc2c1CN(C1CCC(=O)NC1=O)C2=O (centres unmarked) [Compound 46, (2-(2,6-dioxopiperidin-3-yl)-7-methoxy-3-oxoisoindolin-5-yl)methyl(3-(difluoromethoxy)-4-fluorophenyl)carbamate] |
| – | – | – | < 600 | CC(C)(C)c1ccc(NC(=O)OCc2cc(F)c3c(c2)C(=O)N(C2CCC(=O)NC2=O)C3)cn1 (centres unmarked) [Compound 9, (2-(2,6-dioxopiperidin-3-yl)-7-fluoro-3-oxoisoindolin-5-yl)methyl(6-(tert-butyl)pyridin-3-yl)carbamate] |
| 1200 to 1900 | < 30 | < 30 | < 600 | O=C1CCC(N2Cc3c(F)cc(COC(=O)Nc4cccc(OC5CC5)c4)cc3C2=O)C(=O)N1 (centres unmarked) [Compound 21, (2-(2,6-dioxopiperidin-3-yl)-7-fluoro-3-oxoisoindolin-5-yl)methyl (3-cyclopropoxyphenyl)carbamate] |
| 600 to 1200 | < 30 | < 30 | < 600 | COc1cc(COC(=O)Nc2ccc(-c3ccccn3)cc2)cc2c1CN(C1CCC(=O)NC1=O)C2=O (centres unmarked) [Compound 42, (2-(2,6-dioxopiperidin-3-yl)-7-methoxy-3-oxoisoindolin-5-yl)methyl (4-(pyridin-2-yl)phenyl)carbamate] |
| – | – | – | < 600 | Cc1cc(NC(=O)OCc2cc(F)c3c(c2)C(=O)N(C2CCC(=O)NC2=O)C3)cnc1-c1ccccc1 (centres unmarked) [Compound 20, (2-(2,6-dioxopiperidin-3-yl)-7-fluoro-3-oxoisoindolin-5-yl)methyl(5-methyl-6-phenylpyridin-3-yl)carbamate] |
| – | – | – | < 600 | COc1cc(COC(=O)Nc2cc(F)cc(OC(F)F)c2)cc2c1CN(C1CCC(=O)NC1=O)C2=O (centres unmarked) [Compound 47, (2-(2,6-dioxopiperidin-3-yl)-7-methoxy-3-oxoisoindolin-5-yl)methyl(3-(difluoromethoxy)-5-fluorophenyl) carbamate] |
| – | – | – | < 600 | C[C@@H]1CCCN1c1ccc(NC(=O)OCc2cc(F)c3c(c2)C(=O)N(C2CCC(=O)NC2=O)C3)cn1 (stereo partly drawn) [Compound 23, (2-(2,6-dioxopiperidin-3-yl)-7-fluoro-3-oxoisoindolin-5-yl)methyl (6-((R)-2-methylpyrrolidin-1-yl)pyridin-3-yl)carbamate] |
| – | – | 30 to 300 | – | O=C1CCC(N2Cc3c(F)cc(COC(=O)Nc4cc(OC(F)(F)F)ccc4F)cc3C2=O)C(=O)N1 (centres unmarked) [Compound 65, (2-(2,6-dioxopiperidin-3-yl)-7-fluoro-3-oxoisoindolin-5-yl)methyl (2-fluoro-5-(trifluoromethoxy)phenyl) carbamate] |
| – | – | – | < 1200 | COc1cc(COC(=O)Nc2ccc(C3CCC3)cc2)cc2c1CN(C1CCC(=O)NC1=O)C2=O (centres unmarked) [Compound 57, (2-(2,6-dioxopiperidin-3-yl)-7-methoxy-3-oxoisoindolin-5-yl)methyl(4-cyclobutylphenyl) carbamate] |
| – | – | – | < 600 | Cc1cc(Cl)cc(NC(=O)OCc2cc(F)c3c(c2)C(=O)N(C2CCC(=O)NC2=O)C3)c1 (centres unmarked) [Compound 27, (2-(2,6-dioxopiperidin-3-yl)-7-fluoro-3-oxoisoindolin-5-yl)methyl(3-chloro-5-methylphenyl)carbamate] |
| ≤ 600 | – | – | < 600 | COc1cc(COC(=O)Nc2ccc(N3CCCC3C)nc2)cc2c1CN(C1CCC(=O)NC1=O)C2=O (stereo in doubt) [Compound 62, (2-(2,6-dioxopiperidin-3-yl)-7-methoxy-3-oxoisoindolin-5-yl)methyl (6-((R)-2-methylpyrrolidin-1-yl)pyridin-3-yl)carbamate] |
| – | – | – | < 600 | COc1cc(COC(=O)Nc2ccc(F)c(OC(F)(F)F)c2)cc2c1CN(C1CCC(=O)NC1=O)C2=O (centres unmarked) [Compound 39, (2-(2,6-dioxopiperidin-3-yl)-7-methoxy-3-oxoisoindolin-5-yl)methyl(4-fluoro-3-(trifluoromethoxy)phenyl) carbamate] |
| – | – | – | < 1200 | CC1(C)COc2cc(NC(=O)OCc3cc(F)c4c(c3)C(=O)N(C3CCC(=O)NC3=O)C4)ccc21 (centres unmarked) [Compound 17, (2-(2,6-dioxopiperidin-3-yl)-7-fluoro-3-oxoisoindolin-5-yl)methyl(3,3-dimethyl-2,3-dihydrobenzofuran-6-yl) carbamate] |
| – | – | > 300 | – | COc1cc(COC(=O)Nc2cc(Cl)c(C)cc2F)cc2c1CN(C1CCC(=O)NC1=O)C2=O (centres unmarked) [Compound 68, (2-(2,6-dioxopiperidin-3-yl)-7-methoxy-3-oxoisoindolin-5-yl)methyl (5-chloro-2-fluoro-4-methylphenyl)carbamate] |
| – | – | 30 to 300 | – | Cc1cc(F)cc(NC(=O)OCc2cc(F)c3c(c2)C(=O)N(C2CCC(=O)NC2=O)C3)c1 (centres unmarked) [Compound 63, (2-(2,6-dioxopiperidin-3-yl)-7-fluoro-3-oxoisoindolin-5-yl)methyl (3-fluoro-5-methylphenyl)carbamate] |
| – | – | 30 to 300 | – | Cc1cc(F)c(NC(=O)OCc2cc(F)c3c(c2)C(=O)N(C2CCC(=O)NC2=O)C3)cc1Cl (centres unmarked) [Compound 64, (2-(2,6-dioxopiperidin-3-yl)-7-fluoro-3-oxoisoindolin-5-yl)methyl(5-chloro-2-fluoro-4-methylphenyl)carbamate] |

| Structure (SMILES) | IC50 [1, 2] [nM] | DC50 (GSPT1; [3]) [nM] | DC50 (GSPT1; [4]) [nM] | IC50 [1, 5] [nM] |
| --- | --- | --- | --- | --- |
| Cc1ccc(NC(=O)OCc2cc(Br)c3c(c2)C(=O)N(C2CCC(=O)NC2=O)C3)cc1Cl (centres unmarked) [Compound 1, (7-bromo-2-(2,6-dioxopiperidin-3-yl)-3-oxoisoindolin-5-yl)methyl(3-chloro-4-methylphenyl)carbamate] | > 1900 | – | 30 to 300 | – |
| Cc1ccc(NC(=O)OCc2cc(F)c3c(c2)C(=O)N(C2CCC(=O)NC2=O)C3)cc1Cl (centres unmarked) [Compound 3, (2-(2,6-dioxopiperidin-3-yl)-7-fluoro-3-oxoisoindolin-5-yl)methyl(3-chloro-4-methylphenyl)carbamate] | > 1900 | – | 30 to 300 | – |
| O=C1CCC(N2Cc3c(F)cc(COC(=O)Nc4cc(F)cc(OC(F)F)c4)cc3C2=O)C(=O)N1 (centres unmarked) [Compound 6, (2-(2,6-dioxopiperidin-3-yl)-7-fluoro-3-oxoisoindolin-5-yl)methyl(3-(difluoromethoxy)-5-fluorophenyl)carbamate] | > 1900 | – | 30 to 300 | – |
| Cc1ccc(NC(=O)OCc2ccc3c(c2C)C(=O)N(C2CCC(=O)NC2=O)C3)cc1Cl (centres unmarked) [Compound 73, (2-(2,6-dioxopiperidin-3-yl)-4-methyl-3-oxoisoindolin-5-yl)methyl(3-chloro-4-methylphenyl)carbamate] | ≤ 600 | – | – | – |
